Counter-ions that a name gives are not always drawn. Some results are limits rather than exact numbers.

Here are results for 26 molecules from patent US10722514B2 (FLX Bio, Inc., priority 2017, dated 2020).

The target in the first assay is T1, recombinant full-length USP7 (Homo sapiens, UniProt Q93009).
T1 construct: A 25 μl reaction volume containing recombinant full-length USP7 (62 pM)
T1 sequence (Q93009 whole entry): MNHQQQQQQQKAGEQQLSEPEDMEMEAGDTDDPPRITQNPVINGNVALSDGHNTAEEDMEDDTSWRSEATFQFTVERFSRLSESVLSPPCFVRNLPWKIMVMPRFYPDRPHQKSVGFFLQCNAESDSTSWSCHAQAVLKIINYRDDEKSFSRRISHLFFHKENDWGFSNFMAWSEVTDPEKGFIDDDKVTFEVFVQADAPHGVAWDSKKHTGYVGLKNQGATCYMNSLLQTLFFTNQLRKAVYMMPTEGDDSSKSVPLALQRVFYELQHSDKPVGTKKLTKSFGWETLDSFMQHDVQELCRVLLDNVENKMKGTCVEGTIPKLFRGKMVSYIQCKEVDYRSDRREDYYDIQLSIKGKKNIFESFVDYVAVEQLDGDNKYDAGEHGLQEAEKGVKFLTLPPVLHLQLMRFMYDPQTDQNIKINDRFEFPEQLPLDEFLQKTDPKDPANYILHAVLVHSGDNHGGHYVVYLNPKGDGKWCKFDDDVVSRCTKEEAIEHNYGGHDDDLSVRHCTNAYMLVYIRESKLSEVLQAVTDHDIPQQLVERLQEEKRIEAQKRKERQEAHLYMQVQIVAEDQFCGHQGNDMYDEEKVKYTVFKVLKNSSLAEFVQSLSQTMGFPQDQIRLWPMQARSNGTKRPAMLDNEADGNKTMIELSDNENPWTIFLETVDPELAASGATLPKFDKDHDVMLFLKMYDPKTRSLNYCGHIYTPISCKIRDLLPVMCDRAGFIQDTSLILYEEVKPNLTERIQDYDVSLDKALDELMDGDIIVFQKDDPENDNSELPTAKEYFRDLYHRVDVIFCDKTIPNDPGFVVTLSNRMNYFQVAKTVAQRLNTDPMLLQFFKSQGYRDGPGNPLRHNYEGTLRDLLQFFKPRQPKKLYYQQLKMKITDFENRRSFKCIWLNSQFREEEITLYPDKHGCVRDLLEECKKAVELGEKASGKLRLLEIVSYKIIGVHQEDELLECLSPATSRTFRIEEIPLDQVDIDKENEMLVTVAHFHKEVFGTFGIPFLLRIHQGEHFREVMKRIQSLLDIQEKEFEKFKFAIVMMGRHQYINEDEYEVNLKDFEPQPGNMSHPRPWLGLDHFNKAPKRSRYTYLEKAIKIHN
Description: USP7-mediated ubiquitin-rhodamine cleavage assay. Type of assay: biochemical. The note with it: recombinant full-length USP7 62 pM; ubiquitin-rhodamine 100 nM; 30-minute incubation with compound, 1 hour reaction at room temperature; read-out: Potency: USP7 IC50. The method, boiled down: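 IC50 values came from fluorescence measured after a 1 h room-temperature reaction of 62 pM enzyme with 100 nM ubiquitin-rhodamine, following 30 min compound preincubation; fits used four parameters.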
As for `Cc1cc(Cl)cc(-c2ncnc3cc(CN4C(=O)C5C(C4=O)C5(C)C)sc23)c1O[C@@H]1CNCC(C)(C)C1` (stereo partly drawn) [Example 361, 3-[[4-[5-chloro-2-[[(3S)-5,5-dimethyl-3-piperidyl]oxy]-3-methyl-phenyl]thieno[3,2-d]pyrimidin-6-yl]methyl]-6,6-dimethyl-3-azabicyclo[3.1.0]hexane-2,4-dione], the IC50 (as a rule, the point on the concentration scale where inhibition reaches its midpoint) was below 1000 nM.

Regarding `Cc1cc(Cl)cc(-c2ccnc3cc(Cn4c(=O)ccn(CC(F)(F)F)c4=O)sc23)c1O[C@H]1CCC(C)(C)NC1` [Example 286, 3-[[7-[5-chloro-2-[[(3S)-6,6-dimethyl-3-piperidyl]oxy]-3-methyl-phenyl]thieno[3,2-b]pyridin-2-yl]methyl]-1-(2,2,2-trifluoroethyl)pyrimidine-2,4-dione; 2,2,2-trifluoroacetic acid], the IC50 was below 1000 nM.

As for `CCC(O)c1cc2nccc(-c3cc(Cl)cc(C)c3O[C@@H]3CNC[C@@H]3F)c2s1` (stereo partly drawn) [Example 82, 1-(7-(5-Chloro-2-(((3R,4S)-4-fluoropyrrolidin-3-yl)oxy)-3-methylphenyl)thieno[3,2-b]pyridin-2-yl)propan-1-ol], the concentration for half-maximal inhibition (IC50) fell in the range of 1000 to 10000 nM.

On to `Cc1cc(Cl)cc(-c2ccnc3cc(CN4C(=O)OC(C)(C)C4=O)sc23)c1O[C@H]1CCCNC1` [Example 311, 3-[[7-[5-chloro-3-methyl-2-[[(3S)-3-piperidyl]oxy]phenyl]thieno[3,2-b]pyridin-2-yl]methyl]-5,5-dimethyl-oxazolidine-2,4-dione; 2,2,2-trifluoroacetic acid], for which the IC50 was below 1000 nM.

As for `Cc1cc(Cl)cc(-c2ccnc3cc(Cn4c(C(F)(F)F)cccc4=O)sc23)c1OC1CCNCC1` [Example 227, 1-((7-(5-Chloro-3-methyl-2-(piperidin-4-yloxy)phenyl)thieno[3,2-b]pyridin-2-yl)methyl)-6-(trifluoromethyl)pyridin-2(1H)-one], the IC50 lay within 10000 to 30000 nM.

On to `CCC(O)c1cc2nccc(-c3cc(Cl)cc(C)c3OCC3(C)CNC3)c2s1` (centres unmarked) [Example 33, 1-(7-(5-Chloro-3-methyl-2-((3-methylazetidin-3-yl)methoxy)phenyl)thieno[3,2-b]pyridin-2-yl)propan-1-ol], for which the half-inhibitory concentration (IC50) lay in the range of 1000 to 10000 nM.

Consider `CCN1C[C@H]2C[C@@H]1[C@H](Oc1c(C)cc(Cl)cc1-c1ccnc3cc(CN4C(=O)C5C(C4=O)C5(C)C)sc13)C2` (stereo partly drawn) [Example 332, 3-[[7-[5-chloro-2-[[(1S,4R,5R)-3-ethyl-3-azabicyclo[2.2.1]heptan-5-yl]oxy]-3-methyl-phenyl]thieno[3,2-b]pyridin-2-yl]methyl]-6,6-dimethyl-3-azabicyclo[3.1.0]hexane-2,4-dione], for which the IC50 was below 1000 nM.

With `Cc1cc(C#N)cc(-c2ccnc3cc(CN4C(=O)CCC4=O)sc23)c1O[C@@H]1CNC[C@@H]1F` [Example 97, 3-(2-((2,5-Dioxopyrrolidin-1-yl)methyl)thieno[3,2-b]pyridin-7-yl)-4-(((3R,4S)-4-fluoropyrrolidin-3-yl)oxy)-5-methylbenzonitrile], the IC50 was below 1000 nM.

Take `Cc1cc(Cl)cc(-c2ccnc3cc(CO)sc23)c1O[C@H]1CNC[C@H]1F` [Example 67, (7-(5-Chloro-2-(((3S,4R)-4-fluoropyrrolidin-3-yl)oxy)-3-methylphenyl)thieno[3,2-b]pyridin-2-yl)methanol]: the IC50 lay within 10000 to 30000 nM.

As for `Cc1cc(C(F)(F)F)cc(-c2ccnc3cc(CN4C(=O)C5CC5C4=O)sc23)c1O[C@@H]1CNC[C@@H]1F` (stereo partly drawn) [Example 131, 3-((7-(2-(((3R,4S)-4-Fluoropyrrolidin-3-yl)oxy)-3-methyl-5-(trifluoromethyl)phenyl)thieno[3,2-b]pyridin-2-yl)methyl)-3-azabicyclo[3.1.0]hexane-2,4-dione], the IC50 is below 1000 nM.

For `CCC(O)c1cc2nccc(-c3cc(Cl)cc(C)c3OCC3CNC3)c2s1` (centres unmarked) [Example 14, 1-(7-(2-(Azetidin-3-ylmethoxy)-5-chloro-3-methylphenyl)thieno[3,2-b]pyridin-2-yl)propan-1-ol], the IC50 was 1000 to 10000 nM.

Regarding `Cc1cc(Cl)cc(-c2ccnc3cc(CO)sc23)c1O[C@@H]1CNC[C@@H]1C(C)C` [Example 68, (7-(5-Chloro-2-(((3S,4S)-4-isopropylpyrrolidin-3-yl)oxy)-3-methylphenyl)thieno[3,2-b]pyridin-2-yl)methanol], the IC50 was above 30000 nM.

On to `Cc1cc(Cl)cc(-c2ccnc3cc(CN4C(=O)C5C(C4=O)C5(C)C)sc23)c1O[C@H]1CC[C@H](N)C1` (stereo partly drawn) [Example 394, 3-[[7-[2-[(1S,3S)-3-aminocyclopentoxy]-5-chloro-3-methyl-phenyl]thieno[3,2-b]pyridin-2-yl]methyl]-6,6-dimethyl-3-azabicyclo[3.1.0]hexane-2,4-dione dihydrochloride], for which the IC50 was below 1000 nM.

Still in this assay, the particulars now being: recombinant full-length USP7 62 pM; ubiquitin-rhodamine 100 nM; 30-minute pre-incubation, 1 hour reaction at room temperature; read-out: Potency (USP7 IC50).
As for `Cc1cc(Cl)cc(-c2ccnc3cc(Cn4c(=O)ccn(C(C)C(F)(F)F)c4=O)sc23)c1O[C@H]1CCCNC1` (stereo partly drawn) [Example 575, 3-[[7-[5-chloro-3-methyl-2-[[(3S)-3-piperidyl]oxy]phenyl]thieno[3,2-b]pyridin-2-yl]methyl]-1-(2,2,2-trifluooro-1-methyl-ethyl)pyrimidine-2,4-dione], the IC50 was below 1000 nM.

For the molecule `Cc1cc(Cl)cc(-c2ncnc3cc(Cn4c(=O)ccn(CC(F)(F)F)c4=O)sc23)c1O[C@@H]1CCNC[C@@H]1C` [Example 584, 3-[[4-[5-chloro-3-methyl-2-[[(3S,4R)-3-methyl-4-piperidyl]oxy]phenyl]thieno[3,2-d]pyrimidin-6-yl]methyl]-1-(2,2,2-trifluoroethyl)pyrimidine-2,4-dione], the IC50 is below 1000 nM.

As to `Cc1cc(Cl)cc(-c2ncnc3cc(Cn4c(=O)ccn(CC(F)(F)F)c4=O)sc23)c1O[C@H]1CCCNCC1` [Example 580, 3-[[4-[2-[(4S)-azepan-4-yl]oxy-5-chloro-3-methyl-phenyl]thieno[3,2-d]pyrimidin-6-yl]methyl]-1-(2,2,2-trifluoroethyl)pyrimidine-2,4-dione; 2,2,2-trifluoroacetic acid], the IC50 is below 1000 nM.

`Cc1cc(Cl)cc(-c2ccnc3cc(Cn4c(=O)ccn(C)c4=O)sc23)c1OC1CNCCC1(C)C` (centres unmarked) [Example 592, 3-[[7-[5-chloro-2-[(4,4-dimethyl-3-piperidyl)oxy]-3-methyl-phenyl]thieno[3,2-b]pyridin-2-yl]methyl]-1-methyl-pyrimidine-2,4-dione]: the IC50 is below 1000 nM.

Turning to `Cc1cc(Cl)cc(-c2ccnc3cc(CN4C(=O)C[C@@H](F)C4=O)sc23)c1OC1CCNCC1` [Example 414, (3R)-1-[[7-[5-chloro-3-methyl-2-(4-piperidyloxy)phenyl]thieno[3,2-b]pyridin-2-yl]methyl]-3-fluoro-pyrrolidine-2,5-dione], the IC50 is below 1000 nM.

As for `CC(=O)N1CCC[C@H](Oc2c(C)cc(Cl)cc2-c2ccnc3cc(Cn4c(=O)ccn(CC(F)(F)F)c4=O)sc23)C1` [Example 660, 3-[[7-[2-[[(3S)-1-acetyl-3-piperidyl]oxy]-5-chloro-3-methyl-phenyl]thieno[3,2-b]pyridin-2-yl]methyl]-1-(2,2,2-trifluoroethyl)pyrimidine-2,4-dione], the IC50 is below 1000 nM.

Take `Cc1cc(Cl)cc(-c2ccnc3cc(Cn4c(=O)ccn(C)c4=O)sc23)c1O[C@H]1CN[C@@H](C(=O)O)C1` [Example 601, (2R,4R)-4-[4-chloro-2-methyl-6-[2-[(3-methyl-2,6-dioxo-pyrimidin-1-yl)methyl]thieno[3,2-b]pyridin-7-yl]phenoxy]pyrrolidine-2-carboxylic acid]: the IC50 is 1000 to 10000 nM.

Turning to `Cc1cc([N+](=O)[O-])cc(-c2ccnc3cc(Cn4c(=O)ccn(CC(F)(F)F)c4=O)sc23)c1Oc1cn[nH]c1` [Example 614], the IC50 is below 1000 nM.

As to `Cc1cc(C(F)F)cc(-c2ccnc3cc(Cn4c(=O)ccn(C)c4=O)sc23)c1O[C@H]1CCCNC1` [Example 499, 3-[[7-[5-(difluoromethyl)-3-methyl-2-[[(3S)-3-piperidyl]oxy]phenyl]thieno[3,2-b]pyridin-2-yl]methyl]-1-methyl-pyrimidine-2,4-dione], the IC50 is below 1000 nM.

On to `Cc1cc(Cl)cc(-c2ccnc3cc(Cn4c(=O)ccn(C)c4=O)sc23)c1O[C@H]1CCN(C(C)C)C[C@@H]1F` [Example 473, 3-[[7-[5-chloro-2-[[(3S,4S)-3-fluoro-1-isopropyl-4-piperidyl]oxy]-3-methyl-phenyl]thieno[3,2-b]pyridin-2-yl]methyl]-1-methyl-pyrimidine-2,4-dione; 2,2,2-trifluoroacetic acid], for which the IC50 was below 1000 nM.

With `Cc1cc(Cl)cc(-c2ccnc3cc(Cn4c(=O)ccn(CC(F)(F)F)c4=O)sc23)c1O[C@@H]1CCCN[C@H]1C` [Example 622, 3-[[7-[5-chloro-3-methyl-2-[[(2S,3R)-2-methyl-3-piperidyl]oxy]phenyl]thieno[3,2-b]pyridin-2-yl]methyl]-1-(2,2,2-trifluoroethyl)pyrimidine-2,4-dione; 2,2,2-trifluoroacetic acid], the IC50 is below 1000 nM.

For the molecule `Cc1cc(Cl)cc(-c2ccnc3cc(CN4C(=O)CCC4=O)sc23)c1OC1CC(N)C1` (centres unmarked) [Example 438, 1-[[7-[2-(3-aminocyclobutoxy)-5-chloro-3-methyl-phenyl]thieno[3,2-b]pyridin-2-yl]methyl]pyrrolidine-2,5-dione; 2,2,2-trifluoroacetic acid], the half-inhibitory concentration (IC50) was below 1000 nM.

As for `Cc1cc(Cl)cc(-c2ccnc3cc(Cn4c(=O)ccn(CC(F)(F)F)c4=O)sc23)c1OC1CN2CCC1CC2` (centres unmarked) [Example 594, 3-[[7-(5-chloro-3-methyl-2-quinuclidin-3-yloxy-phenyl)thieno[3,2-b]pyridin-2-yl]methyl]-1-(2,2,2-trifluoroethyl)pyrimidine-2,4-dione; 2,2,2-trifluoroacetic acid], the IC50 was below 1000 nM.
